One assay has as its target T1, SIRT1 (Homo sapiens, UniProt Q96EB6).
T1 sequence (Q96EB6 1-747): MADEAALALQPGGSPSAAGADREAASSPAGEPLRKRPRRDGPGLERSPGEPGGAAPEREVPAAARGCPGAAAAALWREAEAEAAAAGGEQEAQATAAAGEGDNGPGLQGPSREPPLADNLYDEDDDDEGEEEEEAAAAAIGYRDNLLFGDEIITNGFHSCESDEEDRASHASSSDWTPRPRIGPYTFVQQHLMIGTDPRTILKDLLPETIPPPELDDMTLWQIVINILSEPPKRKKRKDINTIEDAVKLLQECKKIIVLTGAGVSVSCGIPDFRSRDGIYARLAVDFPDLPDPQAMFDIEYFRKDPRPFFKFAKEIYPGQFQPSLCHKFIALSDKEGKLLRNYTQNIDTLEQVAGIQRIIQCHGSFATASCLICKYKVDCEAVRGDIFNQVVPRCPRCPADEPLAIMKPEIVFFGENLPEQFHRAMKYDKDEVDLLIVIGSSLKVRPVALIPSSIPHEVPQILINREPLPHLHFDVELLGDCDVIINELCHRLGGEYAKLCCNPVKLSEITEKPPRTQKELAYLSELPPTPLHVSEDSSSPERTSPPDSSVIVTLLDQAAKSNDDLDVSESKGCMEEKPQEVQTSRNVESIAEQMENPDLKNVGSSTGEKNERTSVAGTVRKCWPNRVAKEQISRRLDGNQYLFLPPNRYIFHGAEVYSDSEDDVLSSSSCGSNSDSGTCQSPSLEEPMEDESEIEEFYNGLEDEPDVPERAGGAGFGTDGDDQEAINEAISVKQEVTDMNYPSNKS
The assay is described as follows: SIRT1 deacetylation of Trp 5-mer peptide, OAADPr mass spec assay.

The target in another assay is T2, SIRT2 (Homo sapiens, UniProt Q8IXJ6).
T2 sequence (Q8IXJ6 1-389): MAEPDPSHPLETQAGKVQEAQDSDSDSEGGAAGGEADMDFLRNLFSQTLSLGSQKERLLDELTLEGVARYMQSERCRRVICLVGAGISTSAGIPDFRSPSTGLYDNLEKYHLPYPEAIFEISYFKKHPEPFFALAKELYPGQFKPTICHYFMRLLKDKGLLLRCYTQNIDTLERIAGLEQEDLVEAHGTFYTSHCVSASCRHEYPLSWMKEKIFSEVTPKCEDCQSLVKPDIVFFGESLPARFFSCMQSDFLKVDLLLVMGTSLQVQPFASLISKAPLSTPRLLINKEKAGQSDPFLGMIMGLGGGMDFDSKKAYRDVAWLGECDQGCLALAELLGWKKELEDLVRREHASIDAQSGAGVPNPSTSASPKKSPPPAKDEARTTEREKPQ
The assay is described as follows: SIRT2 deacetylation of Trp 5-mer peptide, OAADPr mass spec assay. Also noted: His-SIRT2(1-389). Type of assay: biochemical.

Another assay concerns the target T3, SIRT3 (Homo sapiens, UniProt Q9NTG7).
T3 sequence (Q9NTG7 102-399): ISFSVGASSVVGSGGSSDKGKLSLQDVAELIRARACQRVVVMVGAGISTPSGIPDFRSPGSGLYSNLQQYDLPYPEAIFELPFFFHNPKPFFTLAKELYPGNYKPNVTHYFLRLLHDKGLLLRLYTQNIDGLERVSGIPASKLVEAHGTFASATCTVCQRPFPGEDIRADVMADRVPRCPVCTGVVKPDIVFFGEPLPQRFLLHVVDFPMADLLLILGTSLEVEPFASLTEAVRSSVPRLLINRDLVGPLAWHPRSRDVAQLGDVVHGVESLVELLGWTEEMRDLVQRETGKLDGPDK
In words: SIRT3 deacetylation of Trp 5-mer peptide, OAADPr mass spec assay. The note with it: Trp SIRT3_IC50, Trp 5-mer peptide; class symbols.

[1] abbreviates: Trp SIRT1_IC50, Trp 5-mer peptide, class symbols.
Setting [2] is: read-out: IC50 (μM) SIRT1, Trp 5-mer peptide and NAD at KM, mean of at least three determinations.
Setting [3] is: Trp 5-mer peptide and NAD at KM, mean of at least three determinations, read-out: IC50 (μM) SIRT2.
Where [4] appears, read: Trp 5-mer peptide, class symbols, read-out: Trp SIRT2_IC50.
The mark [5] stands for this setting: Trp SIRT2_IC50, Trp 5-mer peptide, class symbols.
Where [6] appears, read: IC50 (μM) SIRT1, Trp 5-mer peptide and NAD at KM, mean of at least three determinations.

Like-named read-outs stand apart in the source and are kept apart here. A value given as a limit tells only on which side of the number the result lay.

Protocol for SIRT1: (§1) All assays were performed at room temperature in reaction buffer (50 mM HEPES, pH 7.5, 150 mM NaCl, 1 mM DTT, 0.05% BSA). […] To prepare the assays for analysis, 20 μL of reaction volume was mixed in 80 μL of 50:50 acetonitrile:methanol mixture. […] Peak data was integrated using RapidFire Integrator software (Agilent, Santa Clara, Calif.).
Protocol for SIRT3: as §1

Take `CC(C)(C)OC(=O)NCCC1CCN(c2ncnc3cc(C(N)=O)sc23)CC1` [Compound 15a, tert-butyl (2-(1-(6-carbamoylthieno[3,2-d]pyrimidin-4-yl)piperidin-4-yl)ethyl)carbamate]: the IC50 at SIRT1 (setting [1]) was under 1 µM; on SIRT1 (setting [2]), 0.017 µM; at SIRT2 (setting [3]) it was 0.005 µM; at SIRT2 (setting [4]) it was under 1 µM.

For the compound `NCCC1CCN(c2ncnc3cc(C(N)=O)sc23)CC1` [Compound 16a, 4-(4-(2-aminoethyl)piperidin-1-yl)thieno[3,2-d]pyrimidine-6-carboxamide], the IC50 at SIRT1 (setting [1]) is 1 to 10 µM; on SIRT1 (setting [2]), 1.6 µM; at SIRT2 (setting [3]), 0.11 µM; on SIRT2 (setting [5]) it was under 1 µM.

Consider `CC(C)(C)OC(=O)c1ccc(C(=O)NCCC2CCN(c3ncnc4cc(C(N)=O)sc34)CC2)s1` [Compound 17, tert-butyl 5-((2-(1-(6-carbamoylthieno[3,2-d]pyrimidin-4-yl)piperidin-4-yl)ethyl)carbamoyl)thiophene-2-carboxylate], for which the IC50 against SIRT1 (setting [6]) is 0.007 µM; on SIRT1 (setting [1]), under 1 µM; against SIRT2 (IC50 (μM) SIRT2, Trp 5-mer peptide and NAD at KM, mean of at least three determinations), 0.001 µM; against SIRT2 (setting [5]), under 1 µM.

On to `NC(=O)c1cc2ncnc(N3CCC(CCNC(=O)c4ccc(C(=O)O)s4)CC3)c2s1` [Compound 18, 5-((2-(1-(6-carbamoylthieno[3,2-d]pyrimidin-4-yl)piperidin-4-yl)ethyl)carbamoyl)thiophene-2-carboxylic acid], for which the IC50 is under 1 µM on SIRT1 (setting [1]), 0.014 µM on SIRT1 (setting [2]), 0.004 µM at SIRT2 (setting [3]) and under 1 µM at SIRT2 (setting [4]).

As to `NC(=O)c1cc2ncnc(N3CCC(CCNC(=O)c4cccs4)CC3)c2s1` [Compound 19, 4-(4-(2-(thiophene-2-carboxamido)ethyl)piperidin-1-yl)thieno[3,2-d]pyrimidine-6-carboxamide], the IC50 against SIRT1 (setting [6]) was 0.006 µM; on SIRT1 (setting [1]), under 1 µM; on SIRT2 (setting [3]), 0.007 µM; on SIRT2 (setting [4]), under 1 µM.

Take `CC(=O)NCCC1CCN(c2ncnc3cc(C(N)=O)sc23)CC1` [Compound 20]: the IC50 against SIRT1 (setting [1]) is under 1 µM; at SIRT1 (setting [2]), 0.11 µM; on SIRT2 (setting [3]) it was 0.023 µM; at SIRT2 (setting [4]) it was under 1 µM.

On to `CC(=O)NCCN1CCN(c2ncnc3cc(C(N)=O)sc23)CC1` [Compound 24], for which the IC50 against SIRT1 (setting [1]) is 1 to 10 µM; on SIRT1 (setting [2]) it was 1.6 µM; at SIRT2 (setting [3]), 0.17 µM; at SIRT2 (setting [4]), under 1 µM.

With `CC(=S)NCCN1CCN(c2ncnc3cc(C(N)=O)sc23)CC1` [Compound 26], the IC50 against SIRT1 (setting [1]) was under 1 µM; on SIRT1 (setting [2]), 0.49 µM; on SIRT2 (setting [3]) it was 0.13 µM; on SIRT2 (setting [4]) it was under 1 µM.

Take `CC(C)(C)C(=O)NCC1CCN(c2ncnc3cc(C(N)=O)sc23)CC1` [Compound 27, 4-(4-(pivalamidomethyl)piperidin-1-yl)thieno[3,2-d]pyrimidine-6-carboxamide]: the IC50 was 1 to 10 µM against SIRT1 (setting [1]), 4.3 µM at SIRT1 (setting [2]), 0.74 µM at SIRT2 (setting [3]) and under 1 µM at SIRT2 (setting [4]).

For `CC(C)(C)C(=O)NCCCC1CCN(c2ncnc3cc(C(N)=O)sc23)CC1` [Compound 29, 4-(4-(3-pivalamidopropyl)piperidin-1-yl)thieno[3,2-d]pyrimidine-6-carboxamide], the IC50 on SIRT1 (setting [1]) was under 1 µM; at SIRT1 (setting [2]), 0.042 µM; at SIRT2 (setting [3]), 0.016 µM; on SIRT2 (setting [4]) it was under 1 µM.

Regarding `CC(C)(C)C(=O)NCCN1CCN(c2ncnc3cc(C(N)=O)sc23)CC1` [Compound 30, 4-(4-(2-pivalamidoethyl)piperazin-1-yl)thieno[3,2-d]pyrimidine-6-carboxamide], the IC50 is under 1 µM at SIRT1 (setting [1]), 0.12 µM at SIRT1 (setting [2]), 0.017 µM on SIRT2 (setting [3]) and under 1 µM at SIRT2 (setting [4]).

Regarding `CS(=O)(=O)NCCC1CCN(c2ncnc3cc(C(N)=O)sc23)CC1` [Compound 31], the IC50 is 0.001 µM at SIRT2 (setting [3]) and under 1 µM on SIRT2 (setting [4]).

As to `CS(=O)(=O)NCCN1CCN(c2ncnc3cc(C(N)=O)sc23)CC1` [Compound 32, 4-(4-(2-(methylsulfonamido)ethyl)piperazin-1-yl)thieno[3,2-d]pyrimidine-6-carboxamide 2,2,2-trifluoroacetate], the IC50 against SIRT1 (setting [1]) was under 1 µM; at SIRT1 (setting [2]), 0.38 µM; on SIRT2 (setting [3]), 0.053 µM; at SIRT2 (setting [4]) it was under 1 µM.

Turning to `NC(=O)c1cc2ncnc(N3CCC(CN4CCCC4)CC3)c2s1` [Compound 33], the IC50 against SIRT1 (setting [1]) was under 1 µM; at SIRT1 (setting [2]), 0.73 µM; on SIRT2 (setting [3]) it was 0.22 µM; at SIRT2 (setting [4]), under 1 µM.

For `NC(=O)c1cc2ncnc(N3CCC(CCN4CCCC4)CC3)c2s1` [Compound 34], the IC50 at SIRT1 (setting [1]) was under 1 µM; on SIRT1 (setting [2]), 0.11 µM; at SIRT2 (setting [3]), 0.067 µM; on SIRT2 (setting [4]) it was under 1 µM.

`NC(=O)c1cc2ncnc(N3CCN(CCN4CCCC4)CC3)c2s1` [Compound 35, 4-(4-(2-(Pyrrolidin-1-yl)ethyl)piperazin-1-yl)thieno[3,2-d]pyrimidine-6-carboxamide bis(2,2,2-trifluoroacetate)]: the IC50 at SIRT1 (setting [1]) was under 1 µM; at SIRT1 (setting [2]), 0.053 µM; at SIRT2 (setting [3]), 0.029 µM; on SIRT2 (setting [4]), under 1 µM.

With `CC(C)(C)C(=O)NCCC1CCN(c2ncnc3cc(C(N)=O)oc23)CC1` [Compound 36, 4-(4-(2-pivalamidoethyl)piperidin-1-yl)furo[3,2-d]pyrimidine-6-carboxamide], the IC50 is under 1 µM at SIRT1 (setting [1]), 0.47 µM on SIRT1 (setting [2]), 0.15 µM on SIRT2 (setting [3]) and under 1 µM on SIRT2 (setting [4]).

As to `CC(C)(C)C(=O)NCCC1CCN(c2ccnc3cc(C(N)=O)sc23)CC1` [Compound 37, 7-(4-(2-pivalamidoethyl)piperidin-1-yl)thieno[3,2-b]pyridine-2-carboxamide], the IC50 at SIRT1 (setting [1]) is under 1 µM; on SIRT1 (setting [2]), 0.059 µM; at SIRT2 (setting [3]) it was 0.028 µM; at SIRT2 (setting [4]) it was under 1 µM.

Take `Cc1c(C(N)=O)sc2c(N3CCC(CCNC(=O)C(C)(C)C)CC3)ncnc12` [Compound 39, 7-methyl-4-(4-(2-pivalamidoethyl)piperidin-1-yl)thieno[3,2-d]pyrimidine-6-carboxamide]: the IC50 on SIRT1 (setting [1]) was under 1 µM; on SIRT1 (setting [2]), 0.18 µM; at SIRT2 (setting [3]) it was 0.13 µM; at SIRT2 (setting [4]) it was under 1 µM.

With `CC(C)(C)C(=O)NCCC1CCN(c2ncnc3cc(C(=O)O)sc23)CC1` [Compound 40, 4-(4-(2-Pivalamidoethyl)piperidin-1-yl)thieno[3,2-d]pyrimidine-6-carboxylic acid 2,2,2-trifluoroacetate], the IC50 at SIRT1 (setting [1]) and on SIRT2 (setting [4]) was over 10 µM in each case. Further, at SIRT1 (at the concentrations tested), the “SIRT1 inhibition, in words” value is reported as “no measurable”. Besides, the “SIRT2 inhibition, in words” value on SIRT2 (at the concentrations tested) is listed as “no measurable”.

Turning to `CC(C)(C)OC(=O)NCC1CCN(c2ncnc3cc(C(N)=O)sc23)CC1` [Compound 57, tert-butyl ((1-(6-carbamoylthieno[3,2-d]pyrimidin-4-yl)piperidin-4-yl)methyl)carbamate], the IC50 on SIRT3 was over 10000 nM; on SIRT2 (setting [4]), 1 to 10 µM.

(Values after patent US20160002273A1, “THIENO[3,2-D]PYRIMIDINE-6-CARBOXAMIDES AND ANALOGUES AS SIRTUIN MODULATORS” (GLAXOSMITHKLINE LLC, priority 2013, published 2016).)
